In PubChem BioAssay (NCI):
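Step 1: Grow cells in 96-well plates. Step 2: Expose to compound for 48 hours at 5 concentrations. Step 3: Interpolate endpoints linearly; if unreached, use highest concentration. TGI: total growth inhibition.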

Tests used:
Assay in all cases: NCI-60 cell line screen, 48 h
[1] = test system: 786-0 renal
[2] = test system: A498 renal
[3] = test system: A549 NSCLC
[4] = test system: CAKI-1 renal
[5] = test system: CCRF-CEM leukemia
[6] = test system: COLO 205 colon
[7] = test system: DLD-1 colon
[8] = test system: DMS 114 small cell lung
[9] = test system: DMS 273 small cell lung
[10] = test system: HCC-2998 colon
[11] = test system: HCT-116 colon
[12] = test system: HL-60(TB) leukemia
[13] = test system: HOP-62 NSCLC
[14] = test system: HOP-92 NSCLC
[15] = test system: HT29 colon
[16] = test system: IGROV1 ovarian
[17] = test system: K-562 leukemia
[18] = test system: KM12 colon
[19] = test system: LOX IMVI melanoma
[20] = test system: LXFL 529 NSCLC
[21] = test system: M14 melanoma
[22] = test system: M19-MEL melanoma
[23] = test system: MALME-3M melanoma
[24] = test system: MOLT-4 leukemia
[25] = test system: NCI-H23 lung
[26] = test system: NCI-H460 lung
[27] = test system: NCI-H522 lung
[28] = test system: OVCAR-3 ovarian
[29] = test system: OVCAR-4 ovarian
[30] = test system: OVCAR-5 ovarian
[31] = test system: OVCAR-8 ovarian
[32] = test system: RPMI-8226 leukemia
[33] = test system: RXF-631 renal
[34] = test system: SF-295 CNS
[35] = test system: SF-539 CNS
[36] = test system: SK-MEL-2 melanoma
[37] = test system: SK-MEL-28 melanoma
[38] = test system: SK-MEL-5 melanoma
[39] = test system: SK-OV-3 ovarian
[40] = test system: SN12C renal
[41] = test system: SNB-19 CNS
[42] = test system: SNB-75 CNS
[43] = test system: SNB-78 CNS
[44] = test system: SW-620 colon
[45] = test system: TK-10 renal
[46] = test system: U251 CNS
[47] = test system: UACC-257 melanoma
[48] = test system: UACC-62 melanoma
[49] = test system: UO-31 renal
[50] = test system: XF 498 CNS
[51] = test system: EKVX NSCLC
[52] = test system: NCI-H226 lung
[53] = test system: SF-268 CNS
[54] = test system: SR leukemia
[55] = test system: ACHN renal
[56] = test system: HCT-15 colon
[57] = test system: KM20L2 colon
[58] = test system: RXF 393 renal

Measured: TGI

COC(=O)CCC1(NS(=O)(=O)c2ccc(C)cc2)CCC(C(C)(C)C)CC1 (stereo not drawn)
68.3 µM: [20]
24.7 µM: [47]
11.8 µM: [12]
31.8 µM: [15]
19.3 µM: [38]
27.1 µM: [14]
65.9 µM: [7]
67.2 µM: [43]
30.7 µM: [50]
41.2 µM: [42]
37 µM: [5]
29 µM: [1] | [46]
21.3 µM: [27]
> 100 µM: [39]
32.8 µM: [30]
35.4 µM: [23]
44.7 µM: [18]
92 µM: [26]
26.8 µM: [6]
35.6 µM: [41]
28.8 µM: [2]
26.4 µM: [48]
41.7 µM: [16]
45.2 µM: [33]
40.7 µM: [31]
38 µM: [19]
33.5 µM: [36]
21.4 µM: [32]
37.3 µM: [44]
25.2 µM: [22] | [24]
26.2 µM: [35]
33.7 µM: [17] | [21]
73.4 µM: [3]
25.3 µM: [37]
65.4 µM: [45]
22.2 µM: [11]
36.1 µM: [13]
27.3 µM: [4]
16 µM: [49]
20.3 µM: [8]
32.1 µM: [29]
29.2 µM: [25]
31.2 µM: [9]
30.3 µM: [10]
26.5 µM: [34]
23.2 µM: [28]
28.5 µM: [40]

CN(C)CCCCC1CCN(CC(=O)N2c3ccccc3NC(=O)c3ccccc32)CC1
72.9 µM: [21]
> 100 µM: [1] | [2] | [3] | [4] | [5] | [6] | [7] | [8] | [9] | [51] | [10] | [11] | [12] | [13] | [14] | [15] | [17] | [18] | [20] | [22] | [23] | [24] | [52] | [25] | [27] | [28] | [29] | [31] | [32] | [33] | [53] | [34] | [35] | [36] | [37] | [38] | [39] | [40] | [41] | [42] | [43] | [54] | [44] | [45] | [47] | [48] | [49] | [50]

O=S(=O)(c1ccccc1)C1CN2OC1(S(=O)(=O)c1ccccc1)CC21CCCCC1 (stereo not drawn)
> 100 µM: [1] | [3] | [55] | [4] | [5] | [6] | [7] | [8] | [9] | [51] | [10] | [11] | [56] | [12] | [13] | [15] | [16] | [17] | [18] | [57] | [19] | [20] | [21] | [22] | [23] | [24] | [52] | [25] | [26] | [27] | [28] | [29] | [30] | [31] | [32] | [58] | [33] | [53] | [34] | [35] | [36] | [37] | [39] | [40] | [41] | [42] | [54] | [44] | [45] | [46] | [47] | [48] | [49] | [50]
